In a melting point compilation (Tetko et al.; mined from patent text by program, amines drawn as free bases though some values may be those of a salt) one finds melting point data, which are given here for 91 molecules.

Some results are limits rather than exact numbers.

By melting point is commonly meant the temperature of the solid-liquid transition.

The molecule `CCCOC(=O)c1sccc1S(N)(=O)=O` gave a melting point of 79 °C.

Molecule `ON=C(Cn1cncn1)c1ccc(Cl)cc1Cl` had a melting point of 117 °C.

`CC(C)(C)OC(=O)NCCN(CC(=O)O)C(=O)OCc1ccccc1` registered a melting point of 64.5 to 85 °C.

With `Cc1cccc(Cn2nnc(C(N)=O)c2N)c1`, the melting point was in the range of 200 to 202 °C.

With `O=C(Nc1ccc(-n2nc(C3CC3)cc2C2CC2)c(F)c1)c1cccc(F)c1F`, the melting point is 132 to 135 °C.

Consider `N#Cc1cc2c3c(cccc3c1N1CCCC1)C(=O)N(O)C2=O`, for which the melting point lay within 247 to 248 °C.

With `Cn1cc(C(F)(F)F)c(C(=O)O)c1Cl`, the melting point was in the range of 197 to 198 °C.

On to `COC(=O)Nc1nc2ccc(Sc3ccccc3)cn2c1Br`, for which the melting point was in the range of 165 to 168 °C.

Consider `COc1ccc2cc([C@H](C)C(=O)OCC(=O)N(C)CC(=O)OCCO)ccc2c1`, for which the melting point was in the range of 113 to 114 °C.

In turn, `CN1C2CCC1CC(NC(=O)c1cccc3nc(-c4ccccc4)oc13)C2` (stereo unspecified) came in with a melting point of 164 to 166 °C.

As to `Nc1ccccc1-c1nc2cccnc2o1`, the melting point lay in the range of 142 to 144 °C.

For the molecule `Cn1c(C(F)(F)F)cc(=O)n(-c2cc(OCCOCCCl)c(Cl)cc2F)c1=O`, the melting point was 191 to 193 °C.

The molecule `CN1CCN(c2cc(N)ccc2Br)CC1` gave a melting point of 120 to 122 °C.

With `O=C(O)COCCN1CCN(C(c2ccccc2)c2ccccc2)CC1`, the melting point was 100 °C.

Take `C=C(C)Cc1c(C)c2c(c(C)c1O)CC(C)(C)N2C=O`: the melting point was in the range of 166 to 168 °C.

`O=C(O)c1cccc(-c2cccc(OCCc3ccc(Cl)cc3Cl)n2)c1` registered a melting point of 199 to 200 °C.

Molecule `Cc1ccccc1-c1nn(C(C)(C)C(=O)N(C)C)cc1Cl` returned a melting point of 134 to 136 °C.

Turning to `COC(=O)CCCCC(=O)N(O)c1ccc2ccccc2c1O`, the melting point fell in the range of 111 to 113 °C.

In the case of `[O-][N+]#Cc1c(Cl)ccc2cc(Cl)cnc12`, the melting point turned out to be 185 °C.

In turn, `CS(=O)(=O)N(Cc1cccnc1)c1cccc([N+](=O)[O-])c1` displayed a melting point of 131 to 133 °C.

`CNC(=O)N1CCC(c2nn(-c3ccccc3)c3cc(F)ccc23)CC1` registered a melting point of 163 to 165 °C.

`C=CCN(c1ccccc1CC(=O)O)c1c(Cl)cccc1Cl` showed a melting point of 148 °C.

`Cc1ccc(S(=O)(=O)Nc2cc(C(C)C)c([N+](=O)[O-])cc2Br)cc1` gave a melting point of 132 °C.

For the molecule `CC(C)(C)C(=O)OCOC(=O)c1[nH]c2ccccc2c1Nc1ccncc1`, the melting point lay in the range of 223 to 224 °C.

The molecule `CCCCCCCCOc1ccc(O)c2ccccc12` displayed a melting point of 73 to 74 °C.

`COc1ccc([C@H](Sc2cc(Cc3ccccc3)ccc2N)[C@@H](O)C(=O)O)cc1` came in with a melting point of 155 to 158 °C.

`NS(=O)(=O)c1cc(C(=O)O)cc(NCc2ccco2)c1Oc1ccccc1` came in with a melting point of 219 to 220 °C.

Consider `COc1ccc(OC)c2c1C(=O)c1c-2[nH]c2ccc(O)cc12`, for which the melting point is above 260 °C.

The molecule `O=Cc1c(O)cccc1OCCCC(=O)O` showed a melting point of 151 to 153 °C.

In turn, `O=c1oc2c(c(O)c1C(C1CC1)C1CC1)CCCCCC2Cc1ccccc1` (stereo unspecified) came in with a melting point of 94 to 97 °C.

Regarding `CC(C)Oc1ccc(COc2ccc(CC(=O)O)cc2Cl)cc1`, the melting point is 115 to 116 °C.

Consider `Oc1cc(Br)cnc1F`, for which the melting point came to 146 °C.

Turning to `O=C(O)c1cc2c3cc(Br)c(Br)cc3n(Cc3ccccc3)c2s1`, the melting point was in the range of 269 to 273 °C.

The molecule `CC(=O)c1ccc(CNC(=O)c2cccnc2Oc2ccc3nonc3c2)cc1` gave a melting point of 154 to 156 °C.

For `CCOC(=O)c1c(-c2ccc(F)cc2)cc(-c2cccs2)nc1C(C)C`, the melting point fell in the range of 114 to 115 °C.

Molecule `Cc1ccnc(NCCCCC(=O)O)c1` registered a melting point of 138 to 140 °C.

On to `O=C(NC[C@H]1O[C@@H]1c1ccccc1)C(F)(F)F` (racemic), for which the melting point stood at 79 °C.

The molecule `O=C(O)C1CCN(C(=O)c2ccccc2SSc2ccccc2C(=O)N2CCC(C(=O)O)CC2)CC1` came in with a melting point above 250 °C.

As for `O=C(c1ccc(Cl)c([N+](=O)[O-])c1)c1ccc(Cl)c([N+](=O)[O-])c1`, the melting point fell in the range of 131 to 132 °C.

As for `CCCc1nn(CC)c2c(=O)[nH]c(-c3cc(S(=O)(=O)N4CCN(CCO)CC4)ccc3OCC)nc12`, the melting point fell in the range of 191 to 193 °C.

With `COCCOC(=O)c1cnn2c(-c3cccc(C(F)(F)F)c3)ccnc12`, the melting point lay within 111 to 112 °C.

For the molecule `CN(C)C(=S)SCn1c(Br)c(Br)c(S(=O)(=O)C(F)(F)F)c1-c1ccc(Cl)cc1`, the melting point lay in the range of 185 to 187 °C.

In turn, `CN(C)CC1CCc2cc(OCc3ccc(NC(=O)Cc4ccccc4)cc3)ccc2C1` (stereo unspecified) gave a melting point of 130 to 135 °C.

The molecule `COC(=O)C1=C2c3sccc3SC(Cl)CN2CC(c2ccccc2)=C1` (stereo unspecified) had a melting point of 192 to 196 °C.

Consider `CCC(O)(CO)c1ccc(OCc2ccc3ccccc3c2)c(OC)c1` (stereo unspecified), for which the melting point came out at 120 °C.

`Cc1noc(-c2cccc(NC(=O)N[C@@H]3c4cc(C#N)ccc4OC(C)(C)[C@H]3O)c2)n1` displayed a melting point of 157 to 161 °C.

On to `CC(C)(C)OC(=O)N1CCc2c(n(CCCc3ccccc3)c3cc(Cl)c(Cl)cc23)CC1`, for which the melting point lay within 119 to 124 °C.

`OCc1ccc(CO)c(Br)c1` had a melting point of 104 °C.

Molecule `Cc1cccc2c1N(CCN(C(C)C)C(C)C)C(=O)/C2=N/NC(N)=O` registered a melting point of 194 to 195 °C.

The molecule `Cc1nc2ccc(Cl)cc2n2c(-c3ccccc3Cl)nnc12` registered a melting point of 209 °C.

Molecule `COc1cc(C)c(C(O)c2c(C(F)(F)F)cnc(Cl)c2Cl)c(OC)c1OC` (stereo unspecified) showed a melting point of 95 to 98 °C.

The molecule `CN1Cc2c(-c3nc(CCl)co3)ncn2-c2ccsc2C1=O` returned a melting point of 200 to 206 °C.

As for `CC(C)C(=NO)c1ccc(Br)cc1`, the melting point lay within 126 to 136 °C.

`O=C(O)C(=O)c1c(Cl)cc(OCCOc2ccc3ccccc3c2)cc1Cl` gave a melting point of 155 to 156 °C.

Molecule `Cc1cn(-c2cc(NC(=O)c3ccc(Cl)c(C#Cc4ccc(NC5CC5)nn4)c3)cc(C(F)(F)F)c2)cn1` came in with a melting point of 213 to 215 °C.

In turn, `S=c1[nH]c2ccccc2cc1-c1ccccc1` yielded a melting point of 242 to 244 °C.

Take `NC(=S)NN=C(CCC(=O)N1CCCCC1)c1ccccc1`: the melting point was in the range of 181 to 183 °C.

Regarding `O=c1[nH]ncc(Cl)c1-c1ccccc1`, the melting point lay in the range of 193 to 195 °C.

As to `CS(=O)(=O)c1ccc(C(CC2CCCC2)c2nc(Cl)c(C(=O)C3CC3)[nH]2)cc1` (stereo unspecified), the melting point is 95 to 97 °C.

For `CCCCNc1c(C(=O)OCC)c(C)nc2c1ncn2C`, the melting point was in the range of 62 to 63 °C.

Molecule `Nc1ncc(-c2cccnc2)cc1[N+](=O)[O-]` came in with a melting point of 226 to 228 °C.

`O=C1NC(=O)C(Cc2cc(=O)n(Cc3ccc(Cl)cc3)c3ccccc23)S1` (stereo unspecified) returned a melting point of 142 to 144 °C.

With `CCCN(C(C)=O)c1ccc(C(=O)N2CCN(CCc3ccc(Cl)cc3)CC2)cc1`, the melting point was in the range of 112 to 113 °C.

As to `Cc1nn(-c2ccc(C(F)(F)F)cn2)cc1COc1cccc(OC(C)(C)C(=O)O)c1`, the melting point is 152 to 153 °C.

`CCc1nnc2c(NC3CCC3)nc3ccccc3n12`: the melting point lay within 215 to 217 °C.

Molecule `COc1ccccc1N1CCCN(c2ccnc3sc(C(N)=O)c(N)c23)CC1` registered a melting point of 179 to 184 °C.

Turning to `CC(C)(C)OCC(NC(=O)c1ccc2c(Cl)cnc(Cl)c2c1)C(=O)OC(C)(C)C` (racemic), the melting point fell in the range of 116 to 117 °C.

`COc1cc(F)ccc1CCn1ccn2c(=O)cc(-c3ccncn3)nc12` gave a melting point of 196 to 198 °C.

Consider `COc1ccc2c(c1)C(C(=O)Nc1ccc(C(C)C)cc1)CCC2` (stereo unspecified), for which the melting point lay within 168 to 169 °C.

`CNCc1noc(-c2cc(C(C)(C)C)c(O)c(C(C)(C)C)c2)n1` had a melting point of 120 to 122 °C.

Take `NC(=S)Nc1ccccc1-c1ccccc1`: the melting point lay in the range of 183 to 184 °C.

Regarding `CCCc1nc(C(=O)C(C)C)c(C#N)n1Cc1ccc(-c2ccccc2-c2nnnn2C(c2ccccc2)(c2ccccc2)c2ccccc2)cc1`, the melting point was 133 to 134 °C.

`CCOCc1nc2c(N)nc3cc(-c4ccccc4)cnc3c2n1CCCON=C(C)C` showed a melting point of 134 to 136 °C.

Consider `COc1ccc2c(c1)Cc1ccc(C(=O)O)cc1O2`, for which the melting point is 259 to 261 °C.

In the case of `O=C(O)c1ccc(CCCCCc2ccccc2)cc1`, the melting point was 80 to 80.5 °C.

Turning to `CNC(=O)C(O)C(Oc1ccccc1[N+](=O)[O-])c1ccccc1` (stereo unspecified), the melting point is 162 to 163 °C.

With `COC1C(O)C(CO)OC1n1cnc2c(N)nc(F)nc21` (stereo unspecified), the melting point was in the range of 239 to 241 °C.

`Clc1ccc2cc3ccccc3cc2c1` came in with a melting point of 220 to 221 °C.

Molecule `CCOC(=O)C(=O)N1CCCc2c1ccc1[nH]c(=O)c(=O)[nH]c21` had a melting point above 285 °C.

In the case of `COC(=O)c1sc(C)c(Br)c1SC(=O)N(C)C`, the melting point was in the range of 175 to 176 °C.

With `CCc1c(N)c(C(N)=O)nn1C[C@H]1CCCN1C`, the melting point was 130 to 133 °C.

In the case of `ClCc1csc(-c2ccc(Cl)c(Cl)c2)n1`, the melting point was 93 to 96 °C.

Molecule `Oc1c(Br)cc(-c2c3ccccc3c(Br)c3oc4ccccc4c23)c(O)c1Br` came in with a melting point of 226 to 228 °C.

`Cc1cc(-c2cccc(NC(=O)C(C)(C)C)c2)cc2c1[C@H]1CCC(=O)N(C)[C@@H]1CC2` gave a melting point of 95 to 98 °C.

With `C=CCNC(=O)Nc1nn(Cc2ccccc2)cc1C(=O)OCC`, the melting point lay in the range of 77 to 78 °C.

The molecule `CON=C(C(=O)OC)c1cc(C)c(C)cc1COc1ccccc1C` came in with a melting point of 82 to 84 °C.

`CCOC(=O)c1cn(-c2nccs2)c2nc(N3C[C@@H](NC)[C@H](OC)C3)ccc2c1=O` (relative stereo) registered a melting point of 73 to 76 °C.

`O[C@H]1COC(c2cc3ccccc3[nH]2)=N[C@@H]1c1ccccc1` (racemic) showed a melting point of 204 °C.

As for `O=C(Nc1ccsc1)c1ccccc1`, the melting point lay within 155 to 156 °C.

As to `CCOC(=O)C(C)(O)c1ccncc1F` (stereo unspecified), the melting point fell in the range of 56 to 60 °C.

In turn, `CCCCCCCCCCCC(=O)N[C@H](CC(=O)c1ccc2ccccc2c1)C(=O)OCC` registered a melting point of 75 to 76 °C.
